Experimental findings from ChEMBL document CHEMBL1201862, “PubChem BioAssay data set” (2004) are described below.

Calls of active or inactive are those of the source. For most assays here, no stated cut-off is given here; in the data, actives have a measured EC50 and inactives only a lower limit. Where only a bound is given, the exact number is not on record here.

Experiment [1] concerns the target Cytochrome P450 3A4 (Homo sapiens, UniProt P08684).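 Further: CYP3A4 tested as one member of a cytochrome P450 panel screen.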
In experiment [2] the test system is H9c2. In words: cells. Format: functional, cell-based. As to conditions: Rattus norvegicus, H9c2, Myocardium.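 Further: confirmatory concentration-response retest of ultra-high-throughput screening hits for modulation of myocardial damage; cell death induced by hydrogen peroxide oxidative stress; compound pretreatment for 60 min then peroxide exposure for 2 h; potency is for protecting the cells against peroxide damage rather than for killing them.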
In experiment [3] the target is Luciferin 4-monooxygenase (Photinus pyralis, UniProt P08659). In words: inhibition of purified Photinus pyralis luciferase – biochemical, luminescence, dose response (AID 1891).
Chain of Luciferin 4-monooxygenase (P08659 whole entry): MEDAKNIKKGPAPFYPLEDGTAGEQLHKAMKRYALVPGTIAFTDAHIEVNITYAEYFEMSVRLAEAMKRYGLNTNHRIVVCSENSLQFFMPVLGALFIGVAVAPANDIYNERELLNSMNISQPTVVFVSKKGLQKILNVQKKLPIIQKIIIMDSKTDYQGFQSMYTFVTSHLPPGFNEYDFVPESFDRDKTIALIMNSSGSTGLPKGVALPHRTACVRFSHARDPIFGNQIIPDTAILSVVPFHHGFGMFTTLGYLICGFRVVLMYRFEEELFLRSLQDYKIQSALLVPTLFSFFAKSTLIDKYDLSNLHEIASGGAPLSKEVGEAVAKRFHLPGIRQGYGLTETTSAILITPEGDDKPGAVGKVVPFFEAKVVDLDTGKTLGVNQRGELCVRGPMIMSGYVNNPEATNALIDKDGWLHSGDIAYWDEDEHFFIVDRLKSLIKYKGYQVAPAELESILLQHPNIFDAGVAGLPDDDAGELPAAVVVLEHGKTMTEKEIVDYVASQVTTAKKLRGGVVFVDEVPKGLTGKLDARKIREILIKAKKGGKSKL
Experiment [4] is described as follows: reduction of Shn3 3'UTR-driven luciferase in osteoblasts – cell-based, Clone20 osteoblasts, firefly luciferase, cherry-picked, dose response (AID 624132).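 Further: firefly luciferase luminescence from reporter carrying the Shn3 3'UTR in osteoblasts.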 Format: functional.
Experiment [5] can be described thus: Luminescence Cell-Based Dose Confirmation HTS to Identify Inhibitors of Platelet Dense Granule Release. [Related pubchem assays: 1663 (Primary HTS), 1678 (Summary of Project)]. It is filed as functional.
Experiment [6] deals with BJ. Description: cells. Format: functional, cell-based. As to conditions: Homo sapiens.
Experiment [7] can be described thus: DRD fibroblast viability loss – cell-based, non-viral oncogenic, luminescence, dose response (AID 1934). The note with it: Homo sapiens. Format: functional.
Experiment [8] concerns BJ. In words: BJ-TERT fibroblast viability loss – cell-based, RAS-independent, luminescence, dose response (AID 1933). The note with it: Homo sapiens. It is filed as functional.
The subject of experiment [9] is BJ. Description: BJ-TERT-LT-ST fibroblast viability loss – cell-based, RAS-independent, luminescence, dose response (AID 1935).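 Further: BJ fibroblasts immortalized with TERT plus LT and ST oncogenes.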 The note with it: Homo sapiens. It is filed as functional.
Experiment [10] in a line: cells. It is filed as functional, cell-based.
Experiment [11] in a line: cells. It is filed as functional, cell-based. This is another data set of the same source.
Experiment [12] concerns the target Cytochrome P450 2D6 (Homo sapiens, UniProt P10635).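 Further: CYP2D6 member of a cytochrome P450 panel assay.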
Experiment [13] in a line: Luminescence Cell-Based Dose Response HTS to Identify Inhibitors of 5'UTR Stem-Loop Driven Prion Protein mRNA Translation in H4 Neuroglioblastoma Cells. [Related pubchem assays: 1827 (Project Summary), 1813 (Primary HTS)]. Format: functional.
The nature of experiment [14]: alpha-synuclein stem-loop luciferase translation blockers – H4 neuroglioma cells, luminescence, confirmation (AID 1988). Format: functional, cell-based.
A short description of experiment [15]: luciferase reporter signal suppression in cells – H4 neuroglioma cells, luminescence, dose response (AID 1990). It is filed as functional, cell-based.
The nature of experiment [16]: Luminescence Cell-Based Dose Response HTS to Identify Activators of Luciferase Translation or Activity in H4 […] Cells. [Related pubchem assays: 1829 (Project Summary), 1814 (Primary HTS)]. Format: functional.
A short description of experiment [17]: Luminescence Cell-Based Dose Confirmation HTS to Identify Activators of 5'UTR Stem-Loop Driven Alpha-Synuclein mRNA Translation in H4 Neuroglioblastoma Cells. [Related pubchem assays: 1829 (Project Summary), 1814 (Primary HTS)]. It is filed as functional.
Experiment [18] has as its system H4. In words: Luminescence Cell-Based Dose Response HTS to Identify Activators of 5'UTR Stem-Loop Driven Prion Protein mRNA Translation in H4 Neuroglioblastoma Cells. [Related pubchem assays: 1829 (Project Summary), 1814 (Primary HTS)]. Format: functional. As to conditions: Homo sapiens.
Experiment [19] in a line: Trypanosoma cruzi growth suppression in host cells – NIH3T3 host cells, beta-gal luminescence, confirmation (AID 2044).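 Further: intracellular parasites grown in NIH/3T3 mouse fibroblasts as host cells; luminescent beta-galactosidase reporter signal from transgenic T. cruzi replicating inside host cells; inhibitors lower the luminescence signal.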 It is filed as functional, cell-based.
Experiment [20] in a line: NIH3T3 cell viability loss – ATP luminescence, mouse fibroblasts, counter-screen, dose response (AID 2010).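 Further: cells exposed to compound for about 90 hours before reading.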 Format: functional, cell-based.
For experiment [21], the target named is T1, Corticotropin-releasing factor receptor 2/Corticotropin-releasing factor-binding protein (Homo sapiens, UniProt P24387+Q13324).
T1 sequence (Q13324 whole entry): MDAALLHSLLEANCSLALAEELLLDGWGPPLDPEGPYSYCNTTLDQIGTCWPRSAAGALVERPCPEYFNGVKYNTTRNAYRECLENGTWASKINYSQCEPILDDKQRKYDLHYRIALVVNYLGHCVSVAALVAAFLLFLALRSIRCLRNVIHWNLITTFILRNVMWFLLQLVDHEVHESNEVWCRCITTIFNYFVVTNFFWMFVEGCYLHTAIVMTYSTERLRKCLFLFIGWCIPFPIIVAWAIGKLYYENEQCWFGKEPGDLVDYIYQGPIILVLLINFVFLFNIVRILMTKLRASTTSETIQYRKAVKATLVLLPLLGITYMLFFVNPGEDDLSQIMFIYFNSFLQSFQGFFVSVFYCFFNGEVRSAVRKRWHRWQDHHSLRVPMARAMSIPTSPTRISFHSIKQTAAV
T1 sequence (P24387 whole entry): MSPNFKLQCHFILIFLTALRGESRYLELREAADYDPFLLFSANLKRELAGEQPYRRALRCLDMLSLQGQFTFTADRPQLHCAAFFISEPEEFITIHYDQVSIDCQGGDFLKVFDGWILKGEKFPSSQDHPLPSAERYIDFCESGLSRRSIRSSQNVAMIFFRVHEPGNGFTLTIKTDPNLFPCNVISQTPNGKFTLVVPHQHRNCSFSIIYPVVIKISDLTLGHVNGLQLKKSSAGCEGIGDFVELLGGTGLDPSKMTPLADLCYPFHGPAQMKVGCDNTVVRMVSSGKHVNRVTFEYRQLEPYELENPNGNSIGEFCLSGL
Description: Dose Response confirmation of uHTS hits for small molecule antagonists of the CRF-binding protein and CRF-R2 receptor complex. Format: functional. The note with it: read-out: IC50_Mean.

Experiment [22] has as its target T1, Corticotropin-releasing factor receptor 2/Corticotropin-releasing factor-binding protein. Description: activators of CRF receptor 2 with binding protein – uHTS hits, confirmation (AID 602473). It is filed as functional. The note with it: read-out: EC50_Mean.
Experiment [23] has as its system Vero. Description: cells. Format: functional. As to conditions: Chlorocebus sabaeus.
The target in experiment [24] is Paired box protein Pax-8 (Homo sapiens, UniProt Q06710). In words: PAX8 transcriptional activity inhibition in RMG-I – RMG-I cells, luciferase, cherry-pick, dose response (AID 687027).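 Further: luciferase reporter driven by Pax8 target thyroperoxidase promoter measured by SteadyGlo luminescence.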 It is filed as functional, cell-based.
Chain of Paired box protein Pax-8 (Q06710 whole entry): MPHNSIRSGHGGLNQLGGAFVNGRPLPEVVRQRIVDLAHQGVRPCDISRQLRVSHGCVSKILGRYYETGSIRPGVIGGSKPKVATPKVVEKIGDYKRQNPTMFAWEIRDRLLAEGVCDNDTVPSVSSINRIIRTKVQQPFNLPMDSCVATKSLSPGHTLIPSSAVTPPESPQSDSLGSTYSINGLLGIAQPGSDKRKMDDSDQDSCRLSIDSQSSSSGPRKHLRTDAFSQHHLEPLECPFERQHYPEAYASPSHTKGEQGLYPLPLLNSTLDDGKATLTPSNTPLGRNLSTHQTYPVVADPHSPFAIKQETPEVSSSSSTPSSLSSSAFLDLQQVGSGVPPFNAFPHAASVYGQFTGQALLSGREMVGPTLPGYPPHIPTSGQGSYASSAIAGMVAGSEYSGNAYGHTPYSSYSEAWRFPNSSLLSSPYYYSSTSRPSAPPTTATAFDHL
Experiment [25] deals with Cytochrome P450 2C9 (Homo sapiens, UniProt P11712).
Chain of Cytochrome P450 2C9 (P11712 whole entry): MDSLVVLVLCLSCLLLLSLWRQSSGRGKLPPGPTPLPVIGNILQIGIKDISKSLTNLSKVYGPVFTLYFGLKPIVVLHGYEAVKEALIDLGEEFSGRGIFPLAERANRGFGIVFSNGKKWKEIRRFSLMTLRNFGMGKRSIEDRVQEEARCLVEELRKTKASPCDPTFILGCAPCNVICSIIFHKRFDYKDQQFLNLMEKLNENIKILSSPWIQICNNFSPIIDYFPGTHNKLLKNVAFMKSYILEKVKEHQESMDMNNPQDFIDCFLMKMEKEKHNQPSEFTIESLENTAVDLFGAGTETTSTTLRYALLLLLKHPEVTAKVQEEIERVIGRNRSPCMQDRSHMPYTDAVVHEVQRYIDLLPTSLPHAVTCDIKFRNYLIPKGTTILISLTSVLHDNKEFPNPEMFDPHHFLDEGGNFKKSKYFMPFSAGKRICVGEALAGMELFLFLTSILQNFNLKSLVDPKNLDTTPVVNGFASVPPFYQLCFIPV
Experiment [26] relates to INS1. Description: INS-1E survival protection against cytokine death – cell-based, luminescence, retest, dose response (AID 449756).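 Further: cell death triggered by IL-1 beta plus TNF-alpha plus IFN-gamma mixture; protective hits raise ATP signal compared with cytokine alone wells.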 It is filed as functional. As to conditions: Rattus norvegicus.

Chain of Cytochrome P450 3A4 (P08684 whole entry): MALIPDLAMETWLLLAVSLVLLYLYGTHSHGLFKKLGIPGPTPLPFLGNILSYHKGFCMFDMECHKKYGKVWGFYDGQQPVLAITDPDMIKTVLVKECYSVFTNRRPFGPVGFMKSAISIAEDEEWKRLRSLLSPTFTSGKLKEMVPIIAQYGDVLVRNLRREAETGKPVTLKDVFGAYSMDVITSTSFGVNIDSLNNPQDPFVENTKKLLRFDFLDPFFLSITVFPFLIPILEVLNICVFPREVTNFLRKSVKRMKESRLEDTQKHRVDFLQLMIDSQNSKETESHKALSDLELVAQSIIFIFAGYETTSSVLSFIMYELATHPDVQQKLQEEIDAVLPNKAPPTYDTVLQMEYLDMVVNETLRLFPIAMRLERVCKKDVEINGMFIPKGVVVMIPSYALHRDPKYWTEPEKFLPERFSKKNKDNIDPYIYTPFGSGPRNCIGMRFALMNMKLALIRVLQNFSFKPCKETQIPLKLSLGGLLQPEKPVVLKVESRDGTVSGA
Chain of Cytochrome P450 2D6 (P10635 whole entry): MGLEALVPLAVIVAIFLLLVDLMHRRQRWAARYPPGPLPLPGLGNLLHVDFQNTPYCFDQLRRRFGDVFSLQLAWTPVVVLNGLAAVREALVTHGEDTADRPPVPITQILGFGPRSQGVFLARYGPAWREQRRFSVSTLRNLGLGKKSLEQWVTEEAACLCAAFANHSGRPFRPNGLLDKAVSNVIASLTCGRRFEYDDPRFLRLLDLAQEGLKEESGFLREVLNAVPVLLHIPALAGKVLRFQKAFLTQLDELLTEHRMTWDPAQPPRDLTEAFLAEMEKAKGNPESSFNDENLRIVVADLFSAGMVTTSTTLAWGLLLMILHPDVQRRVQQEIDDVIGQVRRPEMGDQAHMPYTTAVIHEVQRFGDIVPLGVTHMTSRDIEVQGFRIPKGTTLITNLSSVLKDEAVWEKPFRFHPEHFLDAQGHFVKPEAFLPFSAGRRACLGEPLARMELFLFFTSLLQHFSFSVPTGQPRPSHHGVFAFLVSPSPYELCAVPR

For the molecule `Nc1ncnc(N(c2ccccc2)C2CCCCC2)c1[N+](=O)[O-]`, the concentration at half-maximal activity (AC50) in [1] was 6.31 µM (inconclusive).
With `COc1cccc(-c2nn3c(-c4ccco4)nnc3s2)c1`, in experiment [2], the IC50 is > 79 µM (inactive).
With `Cn1cc(CN(CCO)Cc2cccs2)c(-c2cccc(Cl)c2)n1`, the EC50 in [3] and in experiment [5] was > 112 µM (not active) each time. Also, the half-maximal activity concentration (AC50) in [4] was 3.25 µM (active).
With `COc1ccc(CCNC(=O)C(=O)NCC2CCCN2S(=O)(=O)c2ccccc2)cc1OC` (configuration not stated), the IC50 in [2] is > 79 µM (inactive).
On to `CSc1nsc(SCc2ccc(Cl)cc2)n1`, for which the EC50 was > 150 µM (not active) in experiment [6], > 150 µM (not active) in experiment [7], > 150 µM (not active) in [8] and > 150 µM (inconclusive) in experiment [9].
For the molecule `CCOc1ccc(N2CC(C(=O)Nc3ccccc3C(=O)NC3CC3)CC2=O)cc1` (configuration not stated), the EC50 in [10] and in experiment [11] was > 350 µM (not active) throughout.
As to `O=C(c1ccco1)N1CCC2(CCCN(Cc3ccccc3)C2)CC1`, the AC50 in [1] is 12.6 µM (inconclusive).
For the molecule `COc1ccccc1-c1nc(Nc2ccncc2)c2ccccc2n1`, the AC50 in experiment [1] was 3.16 µM (inconclusive); in experiment [12], 25.1 µM (inconclusive).
With `O=C1NC(c2cccs2)Nc2ccccc21` (configuration not stated), in experiment [2], the IC50 was 18.2 µM (active).
With `Cc1onc(-c2ccccc2)c1C(=O)Nc1ccc(S(=O)(=O)N2CCCC2)cc1`, the EC50 in experiment [10] and in experiment [11] was > 350 µM (not active) in each case.
As to `Cc1cc(NC(=O)CSc2nnc(C3CC3)n2N)no1`, the EC50 in experiment [13], in experiment [14] and in experiment [15] was > 120 µM (not active) throughout.
`Cc1cccc(-n2ncc3c(NCc4ccco4)ncnc32)c1`: the EC50 in [10] was 88.7 µM (active); in experiment [11], > 350 µM (not active); in [16] it was 49.1 µM (active); in experiment [17], 4.04 µM (active); in experiment [18], 64.9 µM (active).
Consider `CC(C)Sc1nc(N)c2c3c(sc2n1)CN(C)CC3`, for which the EC50 in [10] and in experiment [11] was > 350 µM (not active) each time.
For `COc1cc2cc3c4cc(OC)c(OC)cc4cc[n+]3c(C)c2cc1OC`, in experiment [1], the AC50 was 10 µM (inconclusive).
In the case of `COc1cc(OC)cc(C(=O)Nc2ccc(-c3nc4ccccc4o3)cc2)c1`, the values for the EC50 in experiment [19] and in [20] were 1.06 µM (active) and > 16 µM (not active), respectively. Further, the IC50 in experiment [2] was > 79 µM (inactive).
For the molecule `CCOC(=O)CCCc1c[nH]c2ccccc12`, in experiment [1], the AC50 was 31.6 µM (inconclusive).
As for `COc1cc(NC(=O)CSc2nc3ccccc3n2-c2ccccc2)c(C)cc1[N+](=O)[O-]`, the IC50 in [21] is > 47.1 µM (inactive). The EC50 is > 150 µM (not active) in [6]; > 150 µM (not active) in experiment [7]; > 150 µM (not active) in experiment [8]; > 53 µM (inactive) in [22]; > 150 µM (inconclusive) in experiment [9].
Regarding `COC(=O)c1cc(S(=O)(=O)NCc2ccccc2OC)cn1C`, the EC50 in experiment [10] and in [11] was > 350 µM (not active) each time.
Regarding `CCOc1ccc(CCNC(=O)COC(=O)Cn2nc(C)c([N+](=O)[O-])c2C)cc1OCC`, the EC50 in experiment [10] and in experiment [11] was > 350 µM (not active) each time.
As for `COc1ccc(Nc2nc(-c3sc(C)nc3C)cs2)c(OC)c1`, the EC50 in experiment [6] was 4.21 µM (inconclusive); in [7] it was 4.81 µM (active); in experiment [8], 62.3 µM (active); in experiment [9], > 150 µM (inconclusive).
Turning to `COCCn1c(=O)cnc2cnc(Oc3ccc(OC)cc3)nc21`, the concentration at half-maximal activity (AC50) in experiment [1] is 15.8 µM (inconclusive).
Regarding `COC(=O)c1ccccc1NC(=O)c1ccc2nccnc2c1`, in [2], the IC50 was 13.3 µM (active).
On to `O=C1NC(=O)C(=CNc2ccccc2[N+](=O)[O-])C(=O)N1`, for which the EC50 in experiment [13] was 20.7 µM (active); in experiment [14], > 120 µM (not active); in experiment [15], > 120 µM (not active).
Regarding `Cc1nn(C)c(C)c1/C=C(/C(=O)C(C)(C)C)n1cncn1`, the EC50 in experiment [13] and in [14] was > 120 µM (not active) throughout.
For `COCCn1ccc2c(OCC(=O)Nc3ccccc3OC)cccc2c1=O`, the IC50 in [2] is > 79 µM (inactive).
For the molecule `Cc1ccc(Cn2c(SCc3cccnc3)nc3c2c(=O)n(C)c(=O)n3C)cc1`, the EC50 in [13], in experiment [14] and in experiment [15] was > 120 µM (not active) throughout.
Regarding `COc1ccc(-c2csc(Cc3nnc(N4CCOCC4)n3-c3ccccc3)n2)cc1OC`, the values for the EC50 in experiment [13], in experiment [14] and in [15] were > 120 µM (not active), 19.4 µM (active) and > 120 µM (not active), respectively.
For the molecule `Cc1ccc(-n2nc3c(=O)n(CCCC(=O)NCc4ccco4)nc(C)c3c2C)cc1`, the EC50 in experiment [13] was 43 µM (active); in experiment [14], > 120 µM (not active); in experiment [15], 17.1 µM (active).
For `COc1ccc(N(Cc2cc3cc(OC)ccc3nc2O)C(=O)c2cccnc2)cc1`, in experiment [2], the IC50 was > 79 µM (inactive).
On to `COc1cc(-c2cc3nc4ccccc4n3c(N)c2C#N)cc(OC)c1OC`, for which the EC50 was 16.4 µM (active) in experiment [13], > 120 µM (not active) in [14] and 17.2 µM (active) in [15].
Turning to `CC(OC(=O)Cn1[nH]c(=O)c2ccccc2c1=O)C(=O)Nc1cccc(Cl)c1` (configuration not stated), in [2], the IC50 is > 79 µM (inactive).
In the case of `O=C(CCCN1C(=O)/C(=C/c2ccccc2OC(F)F)SC1=S)Nc1cccnc1`, the CC50 in experiment [23] is 8.53 µM (active). In [24], the AC50 is 7.19 µM (active).
As to `O=C(NCC1CCCO1)c1onc(CSc2ccccc2F)c1C(=O)O` (configuration not stated), the AC50 in [1] is 25.1 µM (inconclusive); in [25], 6.31 µM (inconclusive).
With `COc1ccccc1-c1cc(NC=O)c2ncc(-c3cccc(C(C)=O)c3)n2c1`, the IC50 in experiment [2] is 10 µM (active).
For the molecule `C/C(=N\NC(=S)Nc1ccc(F)cc1)C1CC1`, the concentration at half-maximal activity (AC50) in experiment [1] is 14.1 µM (inconclusive).
For `C[C@@H]1CCCCO[C@H](CN(C)S(=O)(=O)c2cccs2)[C@H](C)CN([C@@H](C)CO)C(=O)c2cc(NC(=O)CCC(F)(F)F)ccc2O1`, the AC50 in experiment [24] was 27.6 µM (active).
In the case of `Oc1c(/C=N/c2cccc(C(F)(F)F)c2)cnn1-c1cccc(Cl)n1`, the values for the AC50 in experiment [1] and in experiment [25] were 25.1 µM (inconclusive) and 10 µM (inconclusive), respectively.
For the molecule `O=C(N/N=C/c1ccccc1O)C1CC(=O)N(c2ccc(Cl)cc2)C1` (configuration not stated), the results for the EC50 in experiment [13], in [14] and in experiment [15] were 24.1 µM (active), 7.99 µM (active) and 15.2 µM (active), respectively. Besides, the AC50 in [26] is 3.69 µM (active).
